One may read the melting point as the temperature, or range, at which the solid turns liquid.

In turn, `O=C(NO)c1ccc(N2CCCC2)cn1` had a melting point of 220 to 225 °C.

The molecule `O=c1c2cc(F)ccc2nc(NCc2ccccn2)n1-c1ccccc1Cl` registered a melting point of 156 to 158 °C.

Regarding `CCc1cccc2c3c([nH]c12)C(CC)(CC(=O)OC)OCC3=O` (stereo not given), the melting point lay within 187 to 189 °C.

`COc1c(C)cc(-c2cncc(OC3SCC(O)C(O)C3O)c2)cc1C` (stereo not given) showed a melting point of 173 °C.

In the case of `Cc1cccc(NC(N)=S)c1N1CCOCC1`, the melting point lay within 178 to 179 °C.

`CCCc1nc2cccc(C(=O)OC)c2n1Cc1ccc(-c2ccccc2-c2nc(=O)o[nH]2)cc1`: the melting point was in the range of 224 to 226 °C.

The molecule `COC(=O)CCc1nc(I)ccc1O` displayed a melting point of 145 to 148 °C.

`CC(=O)SCCc1noc(C(C)c2ccc(-c3ccccc3)c(F)c2)n1` (stereo not given) registered a melting point of 56 to 57 °C.

Turning to `Cc1cccc(C)c1N1CC(=O)N(c2c(C)cccc2C)CC1=O`, the melting point lay in the range of 233 to 235 °C.

For the molecule `COc1cc2c(cc1C)C1(CO2)C(=O)Nc2ccccc21` (stereo not given), the melting point is > 250 °C.

The molecule `CC(C)(C=O)C(O)(CCc1ccc(F)cc1)Cn1cncn1` (stereo not given) came in with a melting point of 98 °C.

`CC(C)(C)CNc1ccnc2sc(C(N)=O)c(N)c12` gave a melting point of 238 to 240 °C.

On to `CC(=O)OC1CC2=CCC3C4CCC(C(C)CO)C4(C)CCC3C2(C)C(O)C1` (stereo not given), for which the melting point came out at 121 °C.

`Oc1ccc(-c2nnsc2-c2ccc(O)cc2)cc1` yielded a melting point of 221 °C.

Molecule `O=C(O)Cc1cccc2ccoc12` gave a melting point of 115 to 118 °C.

`Cc1cccc(-c2[nH]c(C(C)C)nc2-c2cccc(-c3ccc4c(c3)CCS4(=O)=O)c2)n1` had a melting point of 128 to 131 °C.

Regarding `O=C(O)C=Cc1ccc2cc[nH]c2c1`, the melting point is 215 to 217 °C.

Regarding `Nc1ccc2c(c1)OCC21C(=O)N(CC2CCCO2)c2ccccc21` (stereo not given), the melting point was 71 to 74 °C.

`CCCCc1nc(C(C)(C)O)c(C(=O)O)n1Cc1ccc(-c2ccccc2C(=O)C(=O)O)cc1` had a melting point of 165 to 170 °C.

On to `CNc1nc2c(Cc3cccnc3)c(C)c(O)c(C)c2s1`, for which the melting point was 236 to 238 °C.

With `CCCCCCCCCCCCCCCCCCOc1cc(OCCCOc2ccccc2)cc(C(=O)N(CC(=O)O)CC(=O)O)c1`, the melting point lay in the range of 86 to 90 °C.

With `CCOC(=O)NC(=N)NCCSCc1[nH]cnc1C`, the melting point is 196 to 197 °C.

In the case of `Cc1cc(=O)n(-c2cccc(Cl)c2)c(=O)[nH]1`, the melting point lay in the range of 250 to 252 °C.

`Cc1cnc(N2CCC(c3ccc(NS(C)(=O)=O)cc3)CC2)n1C` gave a melting point of 225 to 226 °C.

In turn, `CCOC(=O)Cc1cccc(Cn2ccc(OCc3ccc(F)cc3F)c(Br)c2=O)c1` yielded a melting point of 95 to 98 °C.

The molecule `CCCC(CCC)c1ccc(COc2ccc(-c3csc(COc4cncc(C(=O)O)c4)n3)cc2)cc1` registered a melting point of 172 to 174 °C.

Regarding `CC(C)c1cc(C(C)C)c(NC(=O)CN2CCN(CCSc3nc4ccccc4o3)CC2)c(C(C)C)c1`, the melting point lay within 160 to 163 °C.

Molecule `CC(C)(CO)c1cc(C#N)ccc1O` returned a melting point of 129 to 130 °C.

`COC(=O)CCc1cc2cc(Cl)ccc2n1S(=O)(=O)c1cc(C)cc(C)c1` displayed a melting point of 146 to 150 °C.

Molecule `Cc1cc([N+](=O)[O-])cc(N)c1[N+](=O)[O-]` had a melting point of 125 to 127 °C.

Regarding `CSC(=O)C(=O)c1cccc(NC=O)n1`, the melting point was in the range of 163 to 165 °C.

Take `CNc1ccc(C2=NCCO2)cc1`: the melting point was in the range of 102 to 105 °C.

Regarding `CC(Oc1ccc(N(C)c2nc3cc(Cl)ccc3o2)cc1)C(=O)O` (stereo not given), the melting point is 152 to 154 °C.

As to `O=C(Nc1ccc(-n2ccnc2)cc1)NC12CC3CC(CC(C3)C1)C2`, the melting point was 272 to 276 °C.

The molecule `O=C1CCC2(F)C3Cc4ccc(O)c5c4C2(CCN3CC2CC2)C1O5` (stereo not given) displayed a melting point of 188 to 190 °C.

Consider `NC(=O)N1CCC(Oc2c(F)c(F)c(F)c(F)c2F)(c2ccccc2)CC1`, for which the melting point fell in the range of 155 to 160 °C.

`C=C[C@@H]1O[C@](/C=C/C2CC2)(C(F)(F)F)c2cc(Cl)ccc2NC1=O` (relative stereo) returned a melting point of 166 °C.

Consider `CCNC(=O)Cn1cccc(O)c1=O`, for which the melting point lay in the range of 214 to 215 °C.

`CC(C)C[C@H](NC(=O)OCc1ccccc1Cl)C(=O)N[C@@H](Cc1ccccc1)C(=O)CSCc1ccco1` yielded a melting point of 80 to 85 °C.

Turning to `CCc1cccc(C(=O)c2nc(OC)cc(OC)n2)c1N`, the melting point lay in the range of 122 to 123 °C.

On to `CS(=O)(=O)Oc1ccc(-c2c3ccccc3cc3sc4ccccc4c23)cc1`, for which the melting point lay in the range of 136 to 139 °C.

Turning to `O=NN(CCCl)C(=O)NCc1ccccn1`, the melting point turned out to be 70 °C.

`CNC(=O)/C=C/c1cccc(Br)c1` came in with a melting point of 147 to 148 °C.

`CCOc1ccc(C=CC(=O)OC)cc1` registered a melting point of 68 to 70 °C.

Take `COc1c(N2C[C@]3(C)CC[C@]3(N)C2)c(F)cc2c(=O)c(C(=O)O)cn([C@@H]3C[C@@H]3F)c12`: the melting point was 123 to 125 °C.

The molecule `CC(=O)Sc1c(F)c(F)c(C=O)c(F)c1F` registered a melting point of 86 to 87 °C.

In turn, `CCOP(=O)(OCC)c1cc2cc(S(=O)(=O)Cl)c(Cl)cc2[nH]c1=O` returned a melting point of 190 to 200 °C.

In the case of `COc1cc2c(cc1OC)C(N(CC(=O)O)C(=O)C(CSC(C)=O)CSC(C)=O)CC2` (stereo not given), the melting point lay within 140 to 143 °C.

The molecule `CCCCNS(=O)(=O)c1ccc(N2CCC(NC[C@H](O)COc3cccc4[nH]c(=O)[nH]c34)CC2)cc1` displayed a melting point of 69 to 75 °C.

For `O=C1C2=C(CCCC2)C(=O)N1c1ccc(Cl)cc1F`, the melting point is 81 to 82 °C.

`CC1(C)N(CC(N)=O)C(=O)CN1C(=O)CCl` had a melting point of 214 to 216 °C.

`O=C(CC1C(=O)CCc2ccccc21)c1ccccc1` (stereo not given) returned a melting point of 48 to 52 °C.

In turn, `Nc1nc(N)c2cc(Cc3ccccc3Cl)ccc2n1` registered a melting point of 220 to 222 °C.

Turning to `CCc1nc2c(N)nc3ccccc3c2n1CCCCNC(=O)C(C)C`, the melting point lay in the range of 155 to 156 °C.

`Cn1c2cc(Cl)ccc2c2c(C=O)nn(-c3ccccc3)c(=O)c21` yielded a melting point of 235 to 236 °C.

As to `O=Cc1ccn(-c2c(Cl)cc(C(F)(F)F)cc2Cl)c(=O)c1`, the melting point is 115 to 117 °C.

Consider `CC(C)(C)OC(=O)N1Cc2c(Br)sc(-c3ccccc3)c2C1`, for which the melting point fell in the range of 139 to 140 °C.

As for `Cc1noc(-c2ncn3c2[C@@H]2CCN2C(=O)c2c-3cccc2C(F)(F)F)n1`, the melting point lay within 255 to 256 °C.

On to `CC(NC(Nc1cccnc1)=C(C#N)S(=O)(=O)c1ccc(Cl)cc1)C(C)(C)C` (stereo not given), for which the melting point was 172 to 174 °C.

`Cc1cc(Oc2ncc(C(F)(F)F)cc2Cl)nn1C(=O)NCCCl`: the melting point was 98 to 100 °C.

Molecule `COC(=O)CCCc1cc2nc(Cl)ccc2n1S(=O)(=O)c1cccc(Br)c1` gave a melting point of 109 °C.

For `COCCN1CCC(c2nc3cc(-c4ccc(-n5cnnn5)cc4F)ccc3o2)CC1`, the melting point lay within 148 to 152 °C.

As for `N#CCCNC(=O)C1CC(CF)(CF)Oc2ccc([N+](=O)[O-])cc21` (stereo not given), the melting point lay in the range of 137 to 138 °C.

In turn, `CN(C)c1ccc(NC(=O)N2CCC(Nc3nccc(-c4c(-c5ccc(F)cc5)nc5occn45)n3)CC2)cc1` yielded a melting point of 225 to 227 °C.

`CC(C)(CCCCC(=O)CCCCC1(C(=O)O)CC1)C(=O)O`: the melting point is 49 to 52 °C.

`CCNc1ccnc(Cl)c1` displayed a melting point of 55 to 57 °C.

Regarding `Cc1nnc(-c2ccccc2O)o1`, the melting point was 74 to 76 °C.

With `O=C1c2ccccc2C(=O)N1CCCCOc1cccc2c1SCCC2`, the melting point is 116 °C.

As for `O=C1CC[C@@H](CCCO)[C@H](c2ccc(OCc3ccccc3)cc2OCc2ccccc2)C1` (relative stereo), the melting point was 110 to 117 °C.

With `CCOC(=O)c1ccc2c(O)c(C(=O)OCC)c(=O)n(C)c2n1`, the melting point lay in the range of 174 to 175 °C.

Turning to `O=C(Nc1cccc(-c2ccnc3c(C(=O)c4cccs4)cnn23)c1)c1cccnc1`, the melting point lay within 191 to 194 °C.

In turn, `OCC1OC(n2cnc3c(NCC(c4ccccc4)c4ccc(F)cc4)nc(Cl)nc32)C(O)C1O` (stereo not given) displayed a melting point of 120 to 123 °C.

`CC1(C)CCC2(C(=O)O)CCC3(C)C(=CCC4C5(C)CC(O)C(O)C(C)(CO)C5CCC43C)C2C1O` (stereo not given) showed a melting point of 220 to 222 °C.

As to `COc1cc(OCc2ccccn2)ccc1/C=C/C(=O)CC(=O)/C=C/c1cc2ccccc2o1`, the melting point was in the range of 126 to 128 °C.

In the case of `COc1ccc(NS(=O)(=O)c2ccc(N3CCC(NC[C@H](O)COc4ccc(O)cc4)CC3)cc2)cc1OC`, the melting point was 101 to 106 °C.

Molecule `COc1cc2c(cn1)CCC(=CN(C)C)C2=O` showed a melting point of 102 to 104 °C.

In turn, `COCCOc1ccc(OCC2(O)CN3CCC2CC3)cc1` (stereo not given) returned a melting point of 93 to 95 °C.

As for `CCN(CC)C(=O)Oc1cc(-c2ccccc2)c2ccccc2n1`, the melting point worked out at 64 °C.

Regarding `O=C(Nc1cccc(S(=O)(=O)N2CCOCC2)c1)c1cnn2c(C(F)F)cc(-c3ccc(Cl)c(Cl)c3)nc12`, the melting point is 231 °C.

As for `O=c1nc(-c2cccc(CO)n2)sc2ccccc12`, the melting point was in the range of 208 to 209 °C.

The molecule `COc1ccc(C=C(C)[N+](=O)[O-])c(OC)c1` came in with a melting point of 80 to 81 °C.

For `O=C1c2ccccc2C(Cc2ccnc(F)c2)(Cc2ccnc(F)c2)c2cc(O)ccc21`, the melting point fell in the range of 219 to 221 °C.

In turn, `Nc1nn(-c2c(Cl)cc(C(F)(F)F)cc2Cl)cc1C1CC1(Br)Br` (stereo not given) displayed a melting point of 125 to 126 °C.

`C#CC(OC(c1ccccc1)(c1ccccc1)c1ccccc1)C(C)(C)CCCC` (stereo not given) displayed a melting point of 75 to 77 °C.

The molecule `OCc1ccc(-c2ccc(-c3cn([C@H]4CN5CCC4CC5)nn3)cc2)s1` had a melting point of 234 °C.

In the case of `Clc1ccc(-c2nc(CCCCCCc3nnn[nH]3)oc2-c2ccc(Cl)cc2)cc1`, the melting point is 148 °C.

`COC(=O)CCCc1cc2nc(Cl)ccc2n1S(=O)(=O)c1ccc(-c2ccccn2)cc1` registered a melting point of 123 to 124 °C.

`Fc1ccc2c(c1)Cc1cc(F)ccc1O2` showed a melting point of 117 to 118 °C.

Consider `N#Cc1nc2cc3c(cc2[nH]1)OC(F)(Cl)C(F)(Cl)O3` (stereo not given), for which the melting point is > 230 °C.

As for `CC(C)Oc1ccc(C=C(C=O)C(C=O)=Cc2ccc(OC(C)C)cc2)cc1`, the melting point was 200 to 202 °C.

Source of the values: a melting point compilation (Tetko et al.; mined from patent text by program, amines drawn as free bases though some values may be those of a salt).
